Converted amounts (≈) assume the structure as drawn.

The subject of one assay is Mycoplasma hominis. Conditions: n=28, r140, cited from earlier work.
In a further assay the test system is Staphylococcus aureus. Conditions: n=100, r142, cited from earlier work.
Another assay concerns Ureaplasma urealyticum. To be noted: n=19, r143, cited from earlier work.
The next assay relates to Mycoplasma pneumoniae. To be noted: n=11, r141, cited from earlier work.
In assay [1] the test system is HBD-3 mRNA expression in cultured gingival keratinocytes. Put plainly: RT-PCR of HBD-3 mRNA in cultured gingival keratinocytes. Type of assay: cell-based, human. To be noted: 100 ng/ml IL-1β for 24 h.
Assay [2] relates to HBD-3 mRNA expression in fetal lung explants. In words: RT-PCR of HBD-3 mRNA in fetal lung explants. Type of assay: cell-based, human. To be noted: 100 ng/ml IL-1β for 24 h.

Regarding `CCC[C@@H]1C[C@@H](C(=O)N[C@@H]([C@H]2O[C@H](SC)[C@H](O)[C@@H](O)[C@H]2O)[C@@H](C)O)N(C)C1` [LINCOMYCIN, lincomycin], the Range in the assay on Mycoplasma hominis is 0.5-16; with Staphylococcus aureus, 0.5-512; in the assay with Ureaplasma urealyticum, 64-128; in the assay on Mycoplasma pneumoniae it was 2-32. Further, the MIC50 in the assay on Mycoplasma hominis (unit assumed) is 2 µg/mL (≈ 4.92 µM); in the assay with Staphylococcus aureus (unit assumed) it was 1 µg/mL (≈ 2.46 µM); in the assay with Ureaplasma urealyticum (unit assumed), 128 µg/mL (≈ 315 µM); in the assay with Mycoplasma pneumoniae (unit assumed), 8 µg/mL (≈ 19.7 µM). In addition, the MIC90 is 4 µg/mL (≈ 9.84 µM) in the assay on Mycoplasma hominis (unit assumed), 1 µg/mL (≈ 2.46 µM) in the assay on Staphylococcus aureus (unit assumed), 128 µg/mL (≈ 315 µM) with Ureaplasma urealyticum (unit assumed) and 32 µg/mL (≈ 78.7 µM) in the assay with Mycoplasma pneumoniae (unit assumed).

Regarding “IL-1β: IL-1β (R & D Systems), pro-inflammatory stimulus used at 100 ng/ml to induce HBD-3 mRNA expression”, the “HBD-3 mRNA expression” value in assay [1] and in assay [2] was “increased markedly” throughout.
